Measured values as given in ChEMBL document CHEMBL3817769, “Expanding the chemical space of hydrophobic pharmacophores: the role of hydrophobic substructures in the development of novel transcription modulators” (2016).

Tested on: HL-60
Test: Induction of differentiation in human HL60 cells after 20 mins by NBT reduction assay relative to retinoic acid
Assay type: functional
Design: concentration or dose not given beside the values

Row | Compound | Activity
1 | CC(C)(C)c1cc(C(=O)Nc2ccc(C(=O)O)cc2)cc(C(C)(C)C)c1 | 5.6%
2 | 4-[3-(2,5-Bis-trimethylgermanyl-phenyl)-3-oxo-propenyl]-benzoic acid (Ch55G) | 1000%
3 | C[Si](C)(C)c1cc(C(=O)Nc2ccc(C(=O)O)cc2)cc([Si](C)(C)C)c1 [AMSILAROTENE] | 53%
4 | C[Si](C)(C)c1cc(C(=O)/C=C/c2ccc(C(=O)O)cc2)cc([Si](C)(C)C)c1 | 860%
5 | CC(C)(C)c1cc(C(=O)/C=C/c2ccc(C(=O)O)cc2)cc(C(C)(C)C)c1 | 640%
